From patent US12516092B2, “Peptide ligands of the GDNF family receptor A-like (GFRAL) receptor” (THE TRUSTEES OF THE UNIVERSITY OF PENNSYLVANIA, priority 2019, dated 2026)
Blank lines part the entries; values can stand above or below the compound they belong to. Non-standard residues stand in square brackets, D forms with d. Residues, ends and D or L forms follow the SMILES beside them. No end group written: not given here. Lys(N3) = [N-]=[N+]=NCCCC[C@H](N)C(=O)O

How the values were obtained:
human GFRAL receptor = biological target: T1, human GFRAL receptor (Homo sapiens, UniProt Q6UXV0); test: Cy5-conjugate binding to human GFRAL receptor in vitro, tracked with anti-Cy5 antibody; conditions: Cy5-conjugate exposed to human GFRAL receptor in vitro
T1 sequence (Q6UXV0 19-394): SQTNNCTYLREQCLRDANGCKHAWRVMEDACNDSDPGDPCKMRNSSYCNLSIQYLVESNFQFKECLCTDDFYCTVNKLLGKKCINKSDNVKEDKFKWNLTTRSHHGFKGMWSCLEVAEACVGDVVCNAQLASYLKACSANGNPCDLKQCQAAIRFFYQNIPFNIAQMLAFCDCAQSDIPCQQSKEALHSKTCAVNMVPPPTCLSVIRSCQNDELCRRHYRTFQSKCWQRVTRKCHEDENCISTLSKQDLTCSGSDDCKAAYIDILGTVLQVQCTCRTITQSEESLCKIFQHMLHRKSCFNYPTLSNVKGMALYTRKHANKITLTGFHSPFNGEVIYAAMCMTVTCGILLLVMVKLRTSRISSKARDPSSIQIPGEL
Description: A Cy5-conjugate of GFRAL receptor antagonist was synthesized and exposed to the human GFRAL receptor in vitro and tracked for binding using an anti-Cy5 antibody.

male rats = test: Ejaculation studies in rats; assay type: in vivo, rat; conditions: video recorded for 3 h
Experimental: Rats were video recorded for 3 h and the number of spontaneous ejaculations were analyzed by an observer blinded to treatment groups. Without wishing to be bound by theory, GFANT01 may be an agonist of the GFRAL receptor.

[1] = biological target: T2, recombinant human GFRα-like His-tag receptor (Homo sapiens, UniProt Q6UXV0); test: ELISA binding assay of GDF15 to GFRAL receptor; conditions: GDF15 run at 100 ng/mL to 0.005 ng/mL; receptor 0.1 μg/mL on nickel coated plate
T2 construct: purchased R&D 9647-GR-050
T2 sequence (Q6UXV0 19-394): T1 sequence (Q6UXV0 19-394)
Experimental: To validate binding of the synthesized peptides to the GFRAL receptor, an ELISA assay was developed to determine the binding affinity of the peptides for their receptor. The primary antibody (Abcam ab206414) was diluted to 1 μg/mL. The secondary antibody was diluted by placing 5 μL into 10 mL assay buffer. GDF15 was run at concentrations of 100 ng/mL to 0.005 ng/mL. The recombinant human GFRα-like His-tag receptor (R&D 9647-GR-050) was added to the Pierce™ nickel coated plate (ThermoFisher Scientific 15442) at 0.1 μg/mL in a total volume of 100 μL.

[2] = in vitro PK study in rat microsomes; assay type: in vitro ADME
Experimental: FIG. 8 is a graph illustrating the results from in vitro PK study of GFRAL receptor antagonist in rat microsomes. […] Reaction velocity (V) was calculated to be 511 uL/1 mg. Intrinsic clearance (Cl-int) was determined to be 339 uL/min/mg protein.

rats [3] = test: Nausea/malaise (illness-like behaviors) studies in rats; assay type: in vivo, rat; conditions: over the course of 24 hours
Experimental: (§1) Five potential ligands (GFANT01-GFANT05, SEQ. ID NOs: 1-5, wherein the K* in each peptide is Lysine(N3)) were synthesized. The effects of each of the novel ligands were tested for their ability to alter nausea in rats over the course of 24 hours. […] Animals were given either MIC-1 (30 pmol), the endogenous ligand of GFRAL that suppresses appetites, GFANT05 (300 pmol), or a combination of both and their food intake was monitored for up to 24 hrs (FIG. 5A). […] In addition, kaolin intake, a reliable measure of nausea in rats, was reduced in animals receiving GFANT05 compared to vehicle alone and that of a known nausea-inducing compound (MIC-1) (FIG. 5B). […] Analysis of emetic episodes were measured by an observer blinded to treatment groups.

GFRAL receptor = test: co-localization with the GFRAL receptor in the brainstem (image)
Description: This technology provides a new route to treat cachexia and chemotherapy induced nausea/vomiting by uniquely blocking the GDF15-GFRAL signaling in the brainstem.

rats [4] = test: kaolin intake study; assay type: in vivo, rat; conditions: compared to vehicle alone and MIC-1
Experimental: (§2) FIG. 5A is a graph of a food intake study performed to evaluate the efficacy of unconjugated GFANT05 peptide (TK*[…]; SEQ ID NO: 5, wherein K* is K azido) to reduce nausea.
as §1

rats [5] = test: food intake study; assay type: in vivo, rat
Experimental: as §2, §1

Compound: Cy5-conjugate of GFRAL receptor antagonist: Cy5-conjugate of GFRAL receptor antagonist, synthesized for tracking binding with an anti-Cy5 antibody (T[Lys(N3)]EELIHAHADPMVLIQKTDTGVSLQTYD; also: Cy5 conjugate, site not given here)
binding to the GFRAL receptor (human GFRAL receptor): confirming GFRAL receptor antagonist binding to the GFRAL receptor

Compound: growth and differentiation factor 15 [GDF15]
spontaneous ejaculation (male rats): the same effect | KD [1]: 1.03 ng/mL

Reaction velocity (V) [2]: 511 uL/1 mg | half-life [2]: 1.74 h | microsomal CLint ([2]; read-out: Intrinsic clearance (Cl-int)): 339 µL/min/mg
Compound: CC[C@H](C)[C@H](NC(=O)[C@H](CC(C)C)NC(=O)[C@H](CCC(=O)O)NC(=O)[C@H](CCC(=O)O)NC(=O)[C@H](CCCCN=[N+]=[N-])NC(=O)[C@@H](N)[C@@H](C)O)C(=O)N[C@@H](Cc1c[nH]cn1)C(=O)N[C@@H](C)C(=O)N[C@@H](Cc1c[nH]cn1)C(=O)N[C@@H](C)C(=O)N[C@@H](CC(=O)O)C(=O)N1CCC[C@H]1C(=O)N[C@@H](CCSC)C(=O)N[C@H](C(=O)N[C@@H](CC(C)C)C(=O)N[C@H](C(=O)N[C@@H](CCC(N)=O)C(=O)N[C@@H](CCCCN)C(=O)N[C@H](C(=O)N[C@@H](CC(=O)O)C(=O)N[C@H](C(=O)NCC(=O)N[C@H](C(=O)N[C@@H](CO)C(=O)N[C@@H](CC(C)C)C(=O)N[C@@H](CCC(N)=O)C(=O)N[C@H](C(=O)N[C@@H](Cc1ccc(O)cc1)C(=O)N[C@@H](CC(=O)O)C(=O)O)[C@@H](C)O)C(C)C)[C@@H](C)O)[C@@H](C)O)[C@@H](C)CC)C(C)C [GFRAL receptor antagonist] (H-T[Lys(N3)]EELIHAHADPMVLIQKTDTGVSLQTYD-OH; N-terminus and C-terminus assumed)

Compound: GFANT01: engineered peptide EDDVSFQK*LDDNVRYHTLRK; may be an agonist of the GFRAL receptor (EDDVSFQ[Lys(N3)]LDDNVRYHTLRK; not fully specified; printed as EDDVSFQK*LDDNVRYHTLRK)
spontaneous ejaculation (male rats): result in spontaneous ejaculation

Compound: GFANT05: engineered peptide TK*EELIHAHADPMVLIQKTDTGVSLQTYD; GFRAL receptor antagonist (T[Lys(N3)]EELIHAHADPMVLIQKTDTGVSLQTYD)
effect on nausea/illness-like behaviors (rats [3]): significant effect | co-localization with the GFRAL receptor (GFRAL receptor): co-localizing with the GFRAL receptor in the brainstem | kaolin intake (rats [4]): reduced | overall food consumption (rats [5]; GFANT05 (300 pmol) added to MIC-1 (30 pmol), compared with MIC-1): did not increase overall food consumption over MIC-1 | food intake (rats [5]; GFANT05 (300 pmol) alone, 24 hrs post-administration, vs untreated control): ate the same amount of food as untreated control animals
